Source: patent US20240174723A1, “STAPLED ANTIMICROBIAL PEPTIDES (STAMPS) AND USES THEREOF” (Lytica Therapeutics, Inc., priority 2021, published 2024)
≈ marks a conversion by molar mass, not a printed value. Blank lines part the entries; values can stand above or below the compound they belong to. Positions of bridges follow the written chain, without caps; N, C: chain ends. Non-standard residues stand in square brackets, D forms with d. Residues, ends and D or L forms follow the SMILES beside them. S5 = C=CCCC[C@](C)(N)C(=O)O

Experiments:
E. coli = type: cell-based, Escherichia coli
Procedure, shortened: (§1)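 Visible-growth endpoint after 20-24 h at 37 °C defines the MIC. Test organisms, pre-grown to log phase, were exposed at 5×10^5 CFU/ml to peptide dilution series in standard or cation-adjusted Mueller-Hinton broth.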

K. pneumoniae = type: cell-based, Klebsiella pneumoniae
Procedure, shortened: as §1

in vitro [1] = type: cell-based; settings: human, Inhibitory Concentration at 50% Cytotoxicity (IC50) Human Liver Cells (HepG2)
Procedure, shortened: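 Cytotoxicity read by CellTiter-Glo luminescence after 48 h at 37 °C exposure to serially diluted StAMPs or vehicle. HepG2 cells were grown in EMEM plus 10% FBS and given 4 h to attach before dosing; peptides came from a 5 mg/mL aqueous stock.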

P. aeruginosa = type: cell-based, Pseudomonas aeruginosa
Procedure, shortened: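 MIC taken as lowest peptide concentration with no visible growth after 20-24 h at 37 °C. Peptide serial dilutions from water stocks met P. aeruginosa inoculum (5×10^5 CFU/ml final) in MHB or MHB II, per a CLSI-adapted microbroth protocol.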

S. aureus = type: cell-based, Staphylococcus aureus
Procedure, shortened: as §1

in vitro [2] = type: cell-based; settings: human
Procedure: Cell culture: RPTEC were maintained in MEM media supplemented with growth factors. HEPG2 cell line was maintained in Eagle's Minimum Essential Medium (EMEM) supplemented with fetal bovine serum to a final concentration of 10%.
90 minute cytotoxicity assay: Cells were plated in a 96-well format, and after overnight incubation, media was replaced with fresh media. Serial dilutions of StAMPs from a 5 mg/mL water stock, or vehicle, were added to the cells in a final volume of 100 μl. After incubating at 37° C. for 90 min, 50 μl of cell culture media was transferred to a clear 96-well plate, incubated with 50 μl of lactate dehydrogenase (LDH) assay reagent for 10 min, and absorbance measured at 490 nm on a microplate reader.
Renal toxicity was measured after 90 minutes of incubation, while liver toxicity was measured after 48 hours of incubation with StAMPs. N/A=not tested. The following apply to all peptides (i.e., StAMPs) listed in Tables A-C: Crosslinks (X^1—X^2 and X^3—X^4): (alk); N-terminus: —NH2; C-terminus: amidated with —NH2; counterion: Cl^−. The following apply to all peptides (i.e., StAMPs) listed in Table D: Crosslinks (X^1—X^2 and X^3—X^4): (alk); N-terminus: —NH2; C-terminus: as shown in table; counterion: Cl^−.
StAMP Micelle Formulation: DSPE-MPEG(2000) was suspended in buffered saline at 50-100 mg/mL overnight. StAMP stock solutions at 5-20 mg/mL in buffered saline were prepared and equal volumes of micelle and StAMP stock solution were mixed at the desired StAMP:Lipid ratio. Suspensions were allowed to sit for 5-10 minutes at room temperature before being used in in vitro and in vivo assays.
In Table E, the StAMP is StAMP 4 (Table A) and “Lipid”=DSPE-MPEG(2000).

A. baumannii = type: cell-based, Acinetobacter baumannii
Procedure, shortened: as §1

SMILES: CC(C)[C@@H]1NC(=O)[C@@](C)(NC(=O)[C@H](C)NC(=O)[C@H](CCCCN)NC(=O)CNC(=O)[C@H](Cc2ccccc2)NC(=O)[C@H](CCCCN)NC(=O)[C@H](CCCCN)NC(=O)[C@H](CCCCN)NC(=O)[C@H](CCCCN)NC(=O)[C@H](CCCCN)NC(=O)[C@]2(C)CCCC=CCCC[C@](C)(NC(=O)CN)C(=O)NCC(=O)N[C@@H](CCCCN)C(=O)N[C@@H](Cc3ccccc3)C(=O)N2)CCCC=CCCC[C@@](C)(C(=O)N[C@@H](C)C(=O)N[C@@H](CCCCN)C(=O)N[C@@H](CCCCN)C(N)=O)NC(=O)[C@H](CCC(=O)O)NC(=O)CNC1=O [compound 4] (H-G[S5]GKF[S5]KKKKKFGKA[S5]VGE[S5]AKK-NH2; staple 2-6, 16-20)
Minimum Inhibitory Concentration (MIC) E. coli (E. coli): 2 µg/mL | Minimum Inhibitory Concentration (MIC) K. pneumoniae (K. pneumoniae): 6 µg/mL | IC50 at 48 hours (in vitro [1]): 127 µg/mL (≈ 49.5 µM) | Minimum Inhibitory Concentration (MIC) P. aeruginosa (P. aeruginosa): 3 µg/mL | Minimum Inhibitory Concentration (MIC) S. aureus (S. aureus): >64 µg/mL | IC50 at 90 min (in vitro [2]): 105 µg/mL (≈ 40.9 µM) | Minimum Inhibitory Concentration (MIC) A. baumannii (A. baumannii): 3 µg/mL

SMILES: CC(C)[C@@H]1NC(=O)[C@@](C)(NC(=O)[C@H](C)NC(=O)[C@H](CCCCN)NC(=O)CNC(=O)[C@H](Cc2ccccc2)NC(=O)[C@H](CCCCN)NC(=O)[C@H](CCCCN)NC(=O)[C@H](CCCCN)NC(=O)[C@H](CCCCN)NC(=O)[C@H](Cc2c[nH]cn2)NC(=O)[C@]2(C)CCCC=CCCC[C@](C)(NC(=O)CN)C(=O)NCC(=O)N[C@@H](CO)C(=O)N[C@@H](Cc3ccccc3)C(=O)N2)CCCC=CCCC[C@@](C)(C(=O)N[C@@H](C)C(=O)N[C@@H](CCCCN)C(=O)N[C@@H](CCCCN)C(N)=O)NC(=O)[C@H](CCC(=O)O)NC(=O)CNC1=O [compound 5] (H-G[S5]GSF[S5]HKKKKFGKA[S5]VGE[S5]AKK-NH2; staple 2-6, 16-20)
Minimum Inhibitory Concentration (MIC) E. coli (E. coli): 4 µg/mL | Minimum Inhibitory Concentration (MIC) K. pneumoniae (K. pneumoniae): >64 µg/mL | IC50 at 48 hours (in vitro [1]): > 200 µg/mL | Minimum Inhibitory Concentration (MIC) P. aeruginosa (P. aeruginosa): 4 µg/mL | Minimum Inhibitory Concentration (MIC) S. aureus (S. aureus): >64 µg/mL | IC50 at 90 min (in vitro [2]): > 200 µg/mL | Minimum Inhibitory Concentration (MIC) A. baumannii (A. baumannii): 4 µg/mL

SMILES: CC(C)[C@@H]1NC(=O)[C@@](C)(NC(=O)[C@H](C)NC(=O)[C@H](CCCCN)NC(=O)CNC(=O)[C@H](Cc2ccccc2)NC(=O)[C@H](CCCCN)NC(=O)[C@H](CCCCN)NC(=O)[C@H](CCCCN)NC(=O)[C@H](CC(N)=O)NC(=O)[C@H](Cc2c[nH]cn2)NC(=O)[C@]2(C)CCCC=CCCC[C@](C)(NC(=O)CN)C(=O)NCC(=O)N[C@@H](CCCCN)C(=O)N[C@@H](Cc3ccccc3)C(=O)N2)CCCC=CCCC[C@@](C)(C(=O)N[C@@H](C)C(=O)N[C@@H](CCCCN)C(=O)N[C@@H](CCCCN)C(N)=O)NC(=O)[C@H](CCC(=O)O)NC(=O)CNC1=O [compound 6] (H-G[S5]GKF[S5]HNKKKFGKA[S5]VGE[S5]AKK-NH2; staple 2-6, 16-20)
Minimum Inhibitory Concentration (MIC) E. coli (E. coli): 4 µg/mL | Minimum Inhibitory Concentration (MIC) K. pneumoniae (K. pneumoniae): >64 µg/mL | IC50 at 48 hours (in vitro [1]): > 200 µg/mL | Minimum Inhibitory Concentration (MIC) P. aeruginosa (P. aeruginosa): 8 µg/mL | Minimum Inhibitory Concentration (MIC) S. aureus (S. aureus): >64 µg/mL | IC50 at 90 min (in vitro [2]): > 200 µg/mL | Minimum Inhibitory Concentration (MIC) A. baumannii (A. baumannii): 4 µg/mL

SMILES: CC(C)[C@@H]1NC(=O)[C@@](C)(NC(=O)[C@H](C)NC(=O)[C@H](CCCCN)NC(=O)CNC(=O)[C@H](Cc2ccccc2)NC(=O)[C@H](CCCCN)NC(=O)[C@H](CCCCN)NC(=O)[C@H](CCCCN)NC(=O)[C@H](CCC(N)=O)NC(=O)[C@H](Cc2c[nH]cn2)NC(=O)[C@]2(C)CCCC=CCCC[C@](C)(NC(=O)CN)C(=O)NCC(=O)N[C@@H](CCCCN)C(=O)N[C@@H](Cc3ccccc3)C(=O)N2)CCCC=CCCC[C@@](C)(C(=O)N[C@@H](C)C(=O)N[C@@H](CCCCN)C(=O)N[C@@H](CCCCN)C(N)=O)NC(=O)[C@H](CCC(=O)O)NC(=O)CNC1=O [compound 7] (H-G[S5]GKF[S5]HQKKKFGKA[S5]VGE[S5]AKK-NH2; staple 2-6, 16-20)
Minimum Inhibitory Concentration (MIC) E. coli (E. coli): 6 µg/mL | Minimum Inhibitory Concentration (MIC) K. pneumoniae (K. pneumoniae): >64 µg/mL | IC50 at 48 hours (in vitro [1]): > 200 µg/mL | Minimum Inhibitory Concentration (MIC) P. aeruginosa (P. aeruginosa): 8 µg/mL | Minimum Inhibitory Concentration (MIC) S. aureus (S. aureus): >64 µg/mL | IC50 at 90 min (in vitro [2]): > 200 µg/mL | Minimum Inhibitory Concentration (MIC) A. baumannii (A. baumannii): 4 µg/mL

SMILES: CC(C)[C@@H]1NC(=O)[C@@](C)(NC(=O)[C@H](C)NC(=O)[C@H](CCCCN)NC(=O)CNC(=O)[C@H](Cc2ccccc2)NC(=O)[C@H](CCCCN)NC(=O)[C@H](CCCCN)NC(=O)[C@H](CCCCN)NC(=O)[C@@H](NC(=O)[C@H](Cc2c[nH]cn2)NC(=O)[C@]2(C)CCCC=CCCC[C@](C)(NC(=O)CN)C(=O)NCC(=O)N[C@@H](CCCCN)C(=O)N[C@@H](Cc3ccccc3)C(=O)N2)[C@@H](C)O)CCCC=CCCC[C@@](C)(C(=O)N[C@@H](C)C(=O)N[C@@H](CCCCN)C(=O)N[C@@H](CCCCN)C(N)=O)NC(=O)[C@H](CCC(=O)O)NC(=O)CNC1=O [compound 8] (H-G[S5]GKF[S5]HTKKKFGKA[S5]VGE[S5]AKK-NH2; staple 2-6, 16-20)
Minimum Inhibitory Concentration (MIC) E. coli (E. coli): 8 µg/mL | Minimum Inhibitory Concentration (MIC) K. pneumoniae (K. pneumoniae): >64 µg/mL | IC50 at 48 hours (in vitro [1]): > 200 µg/mL | Minimum Inhibitory Concentration (MIC) P. aeruginosa (P. aeruginosa): 8 µg/mL | Minimum Inhibitory Concentration (MIC) S. aureus (S. aureus): >64 µg/mL | IC50 at 90 min (in vitro [2]): > 200 µg/mL | Minimum Inhibitory Concentration (MIC) A. baumannii (A. baumannii): 4 µg/mL

The next lines start with results.

Minimum Inhibitory Concentration (MIC) E. coli (E. coli): 8 µg/mL | Minimum Inhibitory Concentration (MIC) K. pneumoniae (K. pneumoniae): >64 µg/mL | Minimum Inhibitory Concentration (MIC) P. aeruginosa (P. aeruginosa): 16 µg/mL | Minimum Inhibitory Concentration (MIC) S. aureus (S. aureus): >64 µg/mL | IC50 at 90 min (in vitro [2]): > 200 µg/mL | Minimum Inhibitory Concentration (MIC) A. baumannii (A. baumannii): 4 µg/mL
SMILES: CC(C)[C@@H]1NC(=O)[C@@](C)(NC(=O)[C@H](C)NC(=O)[C@H](CCCCN)NC(=O)CNC(=O)[C@H](Cc2ccccc2)NC(=O)[C@H](CCCCN)NC(=O)[C@H](CCCCN)NC(=O)[C@H](CCCCN)NC(=O)[C@H](Cc2ccc(O)cc2)NC(=O)[C@H](Cc2c[nH]cn2)NC(=O)[C@]2(C)CCCC=CCCC[C@](C)(NC(=O)CN)C(=O)NCC(=O)N[C@@H](CCCCN)C(=O)N[C@@H](Cc3ccccc3)C(=O)N2)CCCC=CCCC[C@@](C)(C(=O)N[C@@H](C)C(=O)N[C@@H](CCCCN)C(=O)N[C@@H](CCCCN)C(N)=O)NC(=O)[C@H](CCC(=O)O)NC(=O)CNC1=O [compound 9] (H-G[S5]GKF[S5]HYKKKFGKA[S5]VGE[S5]AKK-NH2; staple 2-6, 16-20)
IC50 at 48 hours (in vitro [1]): > 200 µg/mL

Minimum Inhibitory Concentration (MIC) E. coli (E. coli): 2 µg/mL | Minimum Inhibitory Concentration (MIC) K. pneumoniae (K. pneumoniae): 7 µg/mL | Minimum Inhibitory Concentration (MIC) P. aeruginosa (P. aeruginosa): 6 µg/mL | Minimum Inhibitory Concentration (MIC) S. aureus (S. aureus): >64 µg/mL | IC50 at 90 min (in vitro [2]): 203 µg/mL (≈ 78.9 µM) | Minimum Inhibitory Concentration (MIC) A. baumannii (A. baumannii): 2 µg/mL
SMILES: CC(C)[C@@H]1NC(=O)[C@H](C(C)C)NC(=O)[C@@](C)(NC(=O)[C@H](C)NC(=O)[C@H](CCCCN)NC(=O)CNC(=O)[C@H](Cc2ccccc2)NC(=O)[C@H](CCCCN)NC(=O)[C@H](CCCCN)NC(=O)[C@H](CCCCN)NC(=O)[C@H](CO)NC(=O)[C@H](Cc2c[nH]cn2)NC(=O)[C@]2(C)CCCC=CCCC[C@](C)(NC(=O)CN)C(=O)NCC(=O)N[C@@H](CCCCN)C(=O)N[C@@H](Cc3ccccc3)C(=O)N2)CCCC=CCCC[C@@](C)(C(=O)N[C@@H](C)C(=O)N[C@@H](CCCCN)C(=O)N[C@@H](CCCCN)C(N)=O)NC(=O)[C@H](CCC(=O)O)NC1=O [compound 11] (H-G[S5]GKF[S5]HSKKKFGKA[S5]VVE[S5]AKK-NH2; staple 2-6, 16-20)
IC50 at 48 hours (in vitro [1]): 227 µg/mL (≈ 88.2 µM)
